Measurements published in ChEMBL document CHEMBL1177848, “Synthesis of novel 6,6a,7,8-tetrahydro-5H-naphtho[1,2-e]pyrimido[4,5-b][1,4]diazepines under microwave irradiation as potential anti-tumor agents” (2010).
The source made the active and inactive calls.

Legend:
Assay type in all cases: functional, cell-based
HT-29 = experiment: Growth inhibition of human HT-29 cells at 1 uM after 48 hrs by sulforhodamine B assay
HOP-92 = experiment: Growth inhibition of human HOP92 cells at 1 uM after 48 hrs by sulforhodamine B assay
CCRF-CEM = experiment: Growth inhibition of human CCRF-CEM cells at 1 uM after 48 hrs by sulforhodamine B assay
SNB-75 = experiment: Growth inhibition of human SNB75 cells at 1 uM after 48 hrs by sulforhodamine B assay
SF530 = experiment: Growth inhibition of human SF530 cells at 1 uM after 48 hrs by sulforhodamine B assay
SK-MEL-5 = experiment: Growth inhibition of human SK-MEL-5 cells at 1 uM after 48 hrs by sulforhodamine B assay
MOLT-4 = experiment: Growth inhibition of human MOLT4 cells at 1 uM after 48 hrs by sulforhodamine B assay
IGROV-1 = experiment: Growth inhibition of human IGROV1 cells at 1 uM after 48 hrs by sulforhodamine B assay
MDA-MB-231 = experiment: Growth inhibition of human MDA-MB-231 cells at 1 uM after 48 hrs by sulforhodamine B assay
ACHN = experiment: Growth inhibition of human ACHN cells at 1 uM after 48 hrs by sulforhodamine B assay
NCI-H23 = experiment: Growth inhibition of human NCI-H23 cells at 1 uM after 48 hrs by sulforhodamine B assay
SF-539 = experiment: Growth inhibition of human SF539 cells at 1 uM after 48 hrs by sulforhodamine B assay
HL-60 = experiment: Growth inhibition of human HL-60(TB) cells at 1 uM after 48 hrs by sulforhodamine B assay
KM12 = experiment: Growth inhibition of human KM12 cells at 1 uM after 48 hrs by sulforhodamine B assay
MDA-MB-468 = experiment: Growth inhibition of human MDA-MB-468 cells at 1 uM after 48 hrs by sulforhodamine B assay
OVCAR-8 = experiment: Growth inhibition of human OVCAR8 cells at 1 uM after 48 hrs by sulforhodamine B assay
OVCAR-4 = experiment: Growth inhibition of human OVCAR4 cells at 1 uM after 48 hrs by sulforhodamine B assay
LOX IMVI = experiment: Growth inhibition of human LOXIMVI cells at 1 uM after 48 hrs by sulforhodamine B assay
NCI-H226 = experiment: Growth inhibition of human NCI-H226 cells at 1 uM after 48 hrs by sulforhodamine B assay
SK-MEL-2 = experiment: Growth inhibition of human SK-MEL-2 cells at 1 uM after 48 hrs by sulforhodamine B assay
BT-549 = experiment: Growth inhibition of human BT549 cells at 1 uM after 48 hrs by sulforhodamine B assay
T47D = experiment: Growth inhibition of human T47D cells at 1 uM after 48 hrs by sulforhodamine B assay
Malme-3M = experiment: Growth inhibition of human MALME-3M cells at 1 uM after 48 hrs by sulforhodamine B assay
M14 = experiment: Growth inhibition of human M14 cells at 1 uM after 48 hrs by sulforhodamine B assay
K562 = experiment: Growth inhibition of human K562 cells at 1 uM after 48 hrs by sulforhodamine B assay
NCI-H322M = experiment: Growth inhibition of human […] cells at 1 uM after 48 hrs by sulforhodamine B assay
NCI-H460 = experiment: Growth inhibition of human NCI-H460 cells at 1 uM after 48 hrs by sulforhodamine B assay
A498 = experiment: Growth inhibition of human A498 cells at 1 uM after 48 hrs by sulforhodamine B assay
786-0 = experiment: Growth inhibition of human 786-0 cells at 1 uM after 48 hrs by sulforhodamine B assay
U-251 = experiment: Growth inhibition of human U251 cells at 1 uM after 48 hrs by sulforhodamine B assay
UACC-257 = experiment: Growth inhibition of human UACC257 cells at 1 uM after 48 hrs by sulforhodamine B assay
PC-3 = experiment: Growth inhibition of human PC3 cells at 1 uM after 48 hrs by sulforhodamine B assay
CAKI-1 = experiment: Growth inhibition of human Caki1 cells at 1 uM after 48 hrs by sulforhodamine B assay
NCI/ADR-RES = experiment: Growth inhibition of human NCI/ADR-RES cells at 1 uM after 48 hrs by sulforhodamine B assay
RPMI-8226 = experiment: Growth inhibition of human RPMI8226 cells at 1 uM after 48 hrs by sulforhodamine B assay
SF-268 = experiment: Growth inhibition of human SF268 cells at 1 uM after 48 hrs by sulforhodamine B assay
OVCAR-3 = experiment: Growth inhibition of human OVCAR-3 cells at 1 uM after 48 hrs by sulforhodamine B assay
HOP-62 = experiment: Growth inhibition of human HOP62 cells at 1 uM after 48 hrs by sulforhodamine B assay
SW-620 = experiment: Growth inhibition of human SW620 cells at 1 uM after 48 hrs by sulforhodamine B assay
DU-145 = experiment: Growth inhibition of human DU145 cells at 1 uM after 48 hrs by sulforhodamine B assay
EKVX = experiment: Growth inhibition of human EKVX cells at 1 uM after 48 hrs by sulforhodamine B assay
Hs-578T = experiment: Growth inhibition of human Hs 578T cells at 1 uM after 48 hrs by sulforhodamine B assay
MDA-MB-435 = experiment: Growth inhibition of human MDA-MB-435 cells at 1 uM after 48 hrs by sulforhodamine B assay
MCF7 = experiment: Growth inhibition of human MCF7 cells at 1 uM after 48 hrs by sulforhodamine B assay
UO-31 = experiment: Growth inhibition of human UO31 cells at 1 uM after 48 hrs by sulforhodamine B assay
SR = experiment: Growth inhibition of human SR cells at 1 uM after 48 hrs by sulforhodamine B assay
HCT-15 = experiment: Growth inhibition of human HCT15 cells at 1 uM after 48 hrs by sulforhodamine B assay
COLO 205 = experiment: Growth inhibition of human COLO205 cells at 1 uM after 48 hrs by sulforhodamine B assay
SF-295 = experiment: Growth inhibition of human SF295 cells at 1 uM after 48 hrs by sulforhodamine B assay
RXF 393 = experiment: Growth inhibition of human RXF393 cells at 1 uM after 48 hrs by sulforhodamine B assay
TK-10 = experiment: Growth inhibition of human TK10 cells at 1 uM after 48 hrs by sulforhodamine B assay
SK-MEL-28 = experiment: Growth inhibition of human SK-MEL-28 cells at 1 uM after 48 hrs by sulforhodamine B assay
HCT-116 = experiment: Growth inhibition of human HCT116 cells at 1 uM after 48 hrs by sulforhodamine B assay
SN12C = experiment: Growth inhibition of human SN12C cells at 1 uM after 48 hrs by sulforhodamine B assay
A549 = experiment: Growth inhibition of human A549 cells at 1 uM after 48 hrs by sulforhodamine B assay
NCI-H522 = experiment: Growth inhibition of human NCI-H522 cells at 1 uM after 48 hrs by sulforhodamine B assay
HCC 2998 = experiment: Growth inhibition of human HCC2998 cells at 1 uM after 48 hrs by sulforhodamine B assay
UACC-62 = experiment: Growth inhibition of human UACC62 cells at 1 uM after 48 hrs by sulforhodamine B assay

Measured: growth inhibition (GI)

Nc1ncnc2c1N=C1c3ccccc3CCC1C(c1ccc(F)cc1)N2 (stereo not drawn)
active: all assays above
